Experimental findings from patent US10370438B2, “Histamine-releasing factor (HRF), HRF-receptor and methods of modulating inflammation” (LA JOLLA INSTITUTE FOR ALLERGY AND IMMUNOLOGY, priority 2010, dated 2019) are described below.

This test deals with BALB/c mice. Briefly: OVA-induced food allergy (diarrhea) model. The class given is in vivo, mouse. How it is done: BALB/c mice were intraperitoneally sensitised with OVA (50 μg/mouse) plus alum on days 0 and 14. From day 28, mice were intragastrically challenged with OVA (50 mg) three times a week (Brandt, E. B. et al. J. Clin. Invest. 112:1666-1677 (2003)). Before each challenge, mice were starved for 3 h, then pretreated intragastrically with GST or GST-N19 (100 μg), and rested for 30 min. The development of diarrhoea was visually monitored for 90 min after OVA challenge.
To evaluate the role of HRF in food allergy, an OVA-induced food allergy model developed by Brandt et al. (Brandt et al., J. Clin. Invest. 112:1666 (2003)) was employed. BALB/c mice that were 6-8-week-old were intraperitoneal (i.p.) immunized twice on days 0 and 14 with 50 μg of OVA in the presence of alum. From day 28, mice were intragastrically challenged with OVA (50 mg) three times a week. Before each challenge, mice were starved for 3 hours, then pretreated with GST or GST-N19 (100 μg/mouse) intragastrically, and rested for 30 minutes. Control mice were sensitized and challenged, but not pretreated. The development of diarrhea was monitored for ninety minutes after OVA challenge. […] Sections of jejunum and ileum from mice treated as in FIG. 14 were stained with chloroacetate esterase. […] There was a good correlation shown between the number of mucosal mast cells and the number of diarrhea occurrence during 10 OVA challenges (FIG. 15D). Increased serum IgE and IgG1, but not IgG2a, levels (FIG. 16) and increased expression of mRNAs encoding Th2 cytokines (IL-4, IL-5, IL-13) and proinflammatory cytokines (IL-6, IL-1β) in the intestines were observed (data not shown). In this Th2-skewed model, the amount of HRF in plasma from diarrhea-induced mice, as measured by immunoblotting, was increased by about 2 fold compared to PBS control mice (FIG. 16E). […] However, HRF-reactive IgE was not detected under the study conditions.

“Also recorded” adds a separate entry of the source.

On to “GST-N19: GST fusion protein encoding the first 19 residues of mHRF; inhibitor of HRF/Ig interactions”, for which the Development of diarrhea entry (100 μg/mouse intragastrically before each OVA challenge, vs GST-pretreated or PBS-treated control mice) is listed as “prevented in a much greater percentage of mice; also recorded: prevents”. Moreover, for the setting “jejunum and ileum sections”, the “Increase in mucosal mast cells” value is “inhibited” and the “Increase in serosal mast cells” value was “inhibited”. For the setting “mouse, in vivo”, the “Mastocytosis in the small intestine” value is “inhibits”, the “Plasma level of HRF-reactive IgG” value is “not affected”, the “Plasma level of total IgE” value is given as “not affected” and the “Plasma level of total IgG1” value is listed as “not affected”. For the same substance, the “Plasma level of total IgG2a” value (mouse, in vivo) is listed as “not affected”.
